In BigSolDB 2.1:

CC(CN1c2ccccc2S(=O)(=O)c2ccccc21)N(C)C.Cl (centres undefined)
Conditions | solubility (mole fraction)
in DMF, 278.2 K | 0.00381
in DMF, 283.2 K | 0.00418
in DMF, 288.27 K | 0.00448
in DMF, 293.18 K | 0.00474
in DMF, 298.17 K | 0.00514
in DMF, 303.19 K | 0.00554
in DMF, 308.23 K | 0.00601
in DMF, 313.17 K | 0.00658
in DMF, 318.23 K | 0.00716
in DMF, 323.18 K | 0.00783
in NMP, 278.16 K | 0.00641
in NMP, 283.2 K | 0.00692
in NMP, 288.24 K | 0.00747
in NMP, 293.16 K | 0.00791
in NMP, 298.17 K | 0.00843
in NMP, 308.17 K | 0.00975
in NMP, 313.21 K | 0.0104
in NMP, 318.23 K | 0.0111
in NMP, 323.27 K | 0.0119
in acetic acid, 293.16 K | 0.00208
in acetic acid, 298.18 K | 0.00277
in acetic acid, 303.18 K | 0.00347
in acetic acid, 308.2 K | 0.00433
in acetic acid, 313.17 K | 0.00548
in acetic acid, 318.22 K | 0.00689
in acetic acid, 328.23 K | 0.01
in acetic acid, 333.19 K | 0.0123
in acetic acid, 338.2 K | 0.0149
in acetone, 278.2 K | 0.000103
in acetone, 283.16 K | 0.000124
in acetone, 288.16 K | 0.00015
in acetone, 293.17 K | 0.000177
in acetone, 298.18 K | 0.000199
in acetone, 303.17 K | 0.000216
in acetone, 308.21 K | 0.000237
in acetone, 313.2 K | 0.000258
in acetone, 318.18 K | 0.000278
in acetone, 323.17 K | 0.000298
in ethanol, 278.16 K | 0.000269
in ethanol, 283.21 K | 0.000296
in ethanol, 288.22 K | 0.000322
in ethanol, 293.18 K | 0.000365
in ethanol, 298.21 K | 0.000419
in ethanol, 303.22 K | 0.0005
in ethanol, 308.18 K | 0.000589
in ethanol, 313.17 K | 0.000686
in ethanol, 318.2 K | 0.000829
in methanol, 278.17 K | 0.000759
in methanol, 283.22 K | 0.000925
in methanol, 288.19 K | 0.00112
in methanol, 293.26 K | 0.00137
in methanol, 298.17 K | 0.00156
in methanol, 303.19 K | 0.00185
in methanol, 308.21 K | 0.00225
in methanol, 313.21 K | 0.00284
in methanol, 318.18 K | 0.0034
in water, 278.28 K | 0.00136
in water, 283.27 K | 0.00163
in water, 288.27 K | 0.002
in water, 293.24 K | 0.00246
in water, 298.18 K | 0.00302
in water, 303.18 K | 0.00379
in water, 308.16 K | 0.00484
in water, 313.22 K | 0.00625
